The text below walks through data of patent publication US10647713B2 (Nimbus Lakshmi, Inc., priority 2016, dated 2020).

human TYK2 (JH2domain-pseudokinase), sequence (P29597 556-888): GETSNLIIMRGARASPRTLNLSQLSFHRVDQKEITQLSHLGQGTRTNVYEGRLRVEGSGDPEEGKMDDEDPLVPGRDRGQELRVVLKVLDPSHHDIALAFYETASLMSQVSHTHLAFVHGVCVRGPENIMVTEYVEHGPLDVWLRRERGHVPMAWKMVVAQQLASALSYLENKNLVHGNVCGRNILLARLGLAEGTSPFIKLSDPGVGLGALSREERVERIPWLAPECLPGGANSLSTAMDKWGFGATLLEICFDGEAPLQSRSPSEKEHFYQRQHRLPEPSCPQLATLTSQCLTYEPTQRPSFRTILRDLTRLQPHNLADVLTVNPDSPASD

This experiment addresses human TYK2 (JH2domain-pseudokinase) (Homo sapiens (Human), UniProt P29597). Kind of experiment: TYK2 JH2 Domain Binding Assay (KINOMEscan, DiscoveRx). The note with it: 11-point dilution, duplicate. A digest of the protocol: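 Kd from duplicate 11-point 3-fold dilutions starting at 30,000 nM, fitted by Hill equation with slope fixed at −1. Compounds (final 0.9% DMSO) displace DNA-tagged HEK293-expressed TYK2 JH2 fusion (<0.1 nM) from ligand-coated beads over 1 h at room temperature; eluted kinase read by qPCR.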
By Kd is commonly meant the free concentration of one partner at which half of the binding sites on the other are occupied at equilibrium, for simple one-to-one binding. A higher Kd goes with weaker binding. Regarding `CS(=O)(=O)c1cc([C@@H]2CCC(F)(F)CO2)ccc1Nc1cc(NC(=O)C2CC2)nc2[nH]c(C(F)F)nc12` [I-594, (S)—N-(2-(difluoromethyl)-7-((4-(5,5-difluorotetrahydro-2H-pyran-2-yl)-2-(methylsulfonyl)phenyl)amino)-3H-imidazo[4,5-b]pyridin-5-yl)cyclopropanecarboxamide], the Kd lay in the range of 100 to 500 pM. In the case of `Cc1nc2c(Nc3ccc([C@H]4CCCO4)cc3S(C)(=O)=O)cc(Nc3ccc(C(C)C)c(C#N)n3)nc2[nH]1` [I-595, (R)-3-isopropyl-6-((2-methyl-7-((2-(methylsulfonyl)-4-(tetrahydrofuran-2-yl)phenyl)amino)-3H-imidazo[4,5-b]pyridin-5-yl)amino)picolinonitrile], the Kd fell in the range of 100 to 500 pM. The result for `Cc1nc2c(Nc3ccc([C@@H]4CCCO4)cc3S(C)(=O)=O)cc(Nc3ccc(C(C)C)c(C#N)n3)nc2[nH]1` [I-596, (S)-3-isopropyl-6-((2-methyl-7-((2-(methylsulfonyl)-4-(tetrahydrofuran-2-yl)phenyl)amino)-3H-imidazo[4,5-b]pyridin-5-yl)amino)picolinonitrile] reads 500 to 1000 pM; that for `Cc1nc2c(Nc3ccccc3S(C)(=O)=O)cc(Nc3cc4c(nn3)CCC4)nc2[nH]1` [I-597, N5-(6,7-dihydro-5H-cyclopenta[c]pyridazin-3-yl)-2-methyl-N7-(2-(methylsulfonyl)phenyl)-3H-imidazo[4,5-b]pyridine-5,7-diamine], 100 to 500 pM; that for `COc1c(Nc2cc(Nc3cccc(C#N)n3)nc3[nH]c(C(F)F)nc23)cccc1-c1noc(C)n1` [I-598, 6-((2-(difluoromethyl)-7-((2-methoxy-3-(5-methyl-1,2,4-oxadiazol-3-yl)phenyl)amino)-3H-imidazo[4,5-b]pyridin-5-yl)amino)picolinonitrile], 500 to 1000 pM. Compound `CS(=O)(=O)c1ccccc1Nc1cc(Nc2cccc(C(F)(F)F)n2)nc2[nH]c(C(F)F)nc12` [I-599] registered a Kd of 500 to 1000 pM. The same measure for `Cc1nc2c(Nc3ccccc3S(C)(=O)=O)cc(Nc3cccc(C(F)(F)F)n3)nc2[nH]1` [I-600, 2-methyl-N7-(2-(methylsulfonyl)phenyl)-N5-(6-(trifluoromethyl)pyridin-2-yl)-3H-imidazo[4,5-b]pyridine-5,7-diamine]: 100 to 500 pM; for `Cc1nc2c(Nc3ccc(C4CCC(C)(C)CO4)cc3S(C)(=O)=O)cc(Nc3cnc(C)c(C)n3)nc2[nH]1` (centres unmarked) [I-601, N5-(5,6-dimethylpyrazin-2-yl)-N7-(4-(5,5-dimethyltetrahydro-2H-pyran-2-yl)-2-(methylsulfonyl)phenyl)-2-methyl-3H-imidazo[4,5-b]pyridine-5,7-diamine]: 500 to 1000 pM.

Compound `CS(=O)(=O)c1ccccc1Nc1cc(Nc2cccc(C#N)n2)nc2[nH]c(C(F)F)nc12` [I-602, 6-((2-(difluoromethyl)-7-((2-(methylsulfonyl)phenyl)amino)-3H-imidazo[4,5-b]pyridin-5-yl)amino)picolinonitrile] gave a Kd of under 100 pM. `Cc1nc2c(Nc3ccccc3S(C)(=O)=O)cc(Nc3cccc(C#N)n3)nc2[nH]1` [I-603, 6-((2-methyl-7-((2-(methylsulfonyl)phenyl)amino)-3H-imidazo[4,5-b]pyridin-5-yl)amino)picolinonitrile] returned a Kd of 100 to 500 pM.

With `Cc1nc2c(Nc3ccc(C4COCCO4)cc3S(C)(=O)=O)cc(NC(=O)C3CC3)nc2[nH]1` (centres unmarked) [I-604, N-(7-((4-(1,4-dioxan-2-yl)-2-(methylsulfonyl)phenyl)amino)-2-methyl-3H-imidazo[4,5-b]pyridin-5-yl)cyclopropanecarboxamide], the Kd was 100 to 500 pM. For `Cc1ncc(Nc2cc(Nc3ccc(C4CCC(C)(C)CO4)cc3S(C)(=O)=O)c3nc(C(F)F)[nH]c3n2)nc1C` (centres unmarked) [I-605, 2-(difluoromethyl)-N5-(5,6-dimethylpyrazin-2-yl)-N7-(4-(5,5-dimethyltetrahydro-2H-pyran-2-yl)-2-(methylsulfonyl)phenyl)-3H-imidazo[4,5-b]pyridine-5,7-diamine], the dissociation constant Kd was in the range of 100 to 500 pM. The same measure for `COc1c(Nc2cc(Nc3cccc(C(F)(F)F)n3)nc3[nH]c(C)nc23)cccc1-c1cnn(C)n1` [I-606, N7-(2-methoxy-3-(2-methyl-2H-1,2,3-triazol-4-yl)phenyl)-2-methyl-N5-(6-(trifluoromethyl)pyridin-2-yl)-3H-imidazo[4,5-b]pyridine-5,7-diamine]: 1000 to 10000 pM. The same measure for `CCOc1ccc(Nc2cc(Nc3ccc(F)cc3S(C)(=O)=O)c3nc(C(F)F)[nH]c3n2)nc1C#N` [I-607, 6-((2-(difluoromethyl)-7-((4-fluoro-2-(methylsulfonyl)phenyl)amino)-3H-imidazo[4,5-b]pyridin-5-yl)amino)-3-ethoxypicolinonitrile]: 100 to 500 pM; for `CCOc1ccc(Nc2cc(Nc3ccc(F)cc3S(C)(=O)=O)c3nc(C)[nH]c3n2)nc1C#N` [I-608, 3-ethoxy-6-((7-((4-fluoro-2-(methylsulfonyl)phenyl)amino)-2-methyl-3H-imidazo[4,5-b]pyridin-5-yl)amino)picolinonitrile]: 100 to 500 pM; for `Cc1nc2c(Nc3ccc([C@H]4CCC(C)(C)CO4)cc3S(C)(=O)=O)cc(Nc3cnc(C)c(C)n3)nc2[nH]1` [I-609, (R)—N5-(5,6-dimethylpyrazin-2-yl)-N7-(4-(5,5-dimethyltetrahydro-2H-pyran-2-yl)-2-(methylsulfonyl)phenyl)-2-methyl-3H-imidazo[4,5-b]pyridine-5,7-diamine]: 100 to 500 pM.

Turning to `Cc1nc2c(Nc3ccc([C@@H]4CCC(C)(C)CO4)cc3S(C)(=O)=O)cc(Nc3cnc(C)c(C)n3)nc2[nH]1` [I-610, (S)—N5-(5,6-dimethylpyrazin-2-yl)-N7-(4-(5,5-dimethyltetrahydro-2H-pyran-2-yl)-2-(methylsulfonyl)phenyl)-2-methyl-3H-imidazo[4,5-b]pyridine-5,7-diamine], the equilibrium dissociation constant (Kd) lay within 1000 to 10000 pM.

The compound `Cc1nc2c(Nc3ccc([C@@H]4COCCO4)cc3S(C)(=O)=O)cc(NC(=O)C3CC3)nc2[nH]1` [I-611, (R)—N-(7-((4-(1,4-dioxan-2-yl)-2-(methylsulfonyl)phenyl)amino)-2-methyl-3H-imidazo[4,5-b]pyridin-5-yl)cyclopropanecarboxamide] gave a Kd of 100 to 500 pM. The result for `Cc1nc2c(Nc3ccc([C@H]4COCCO4)cc3S(C)(=O)=O)cc(NC(=O)C3CC3)nc2[nH]1` [I-612, (S)—N-(7-((4-(1,4-dioxan-2-yl)-2-(methylsulfonyl)phenyl)amino)-2-methyl-3H-imidazo[4,5-b]pyridin-5-yl)cyclopropanecarboxamide] reads 100 to 500 pM; that for `Cc1nc2c(Nc3ccc([C@H]4CCC(F)(F)CO4)cc3S(C)(=O)=O)cc(NC(=O)C3CC3)nc2[nH]1` [I-615, (R)—N-(7-((4-(5,5-difluorotetrahydro-2H-pyran-2-yl)-2-(methylsulfonyl)phenyl)amino)-2-methyl-3H-imidazo[4,5-b]pyridin-5-yl)cyclopropanecarboxamide], 500 to 1000 pM; that for `Cc1nc2c(Nc3ccc([C@@H]4CCC(F)(F)CO4)cc3S(C)(=O)=O)cc(NC(=O)C3CC3)nc2[nH]1` [I-616, (S)—N-(7-((4-(5,5-difluorotetrahydro-2H-pyran-2-yl)-2-(methylsulfonyl)phenyl)amino)-2-methyl-3H-imidazo[4,5-b]pyridin-5-yl)cyclopropanecarboxamide], 100 to 500 pM. The same measure for `CS(=O)(=O)c1ccccc1Nc1cc(Nc2ccc3c(n2)C(F)(F)CC3)nc2[nH]c(C(F)F)nc12` [I-617, N5-(7,7-difluoro-6,7-dihydro-5H-cyclopenta[b]pyridin-2-yl)-2-(difluoromethyl)-N7-(2-(methylsulfonyl)phenyl)-3H-imidazo[4,5-b]pyridine-5,7-diamine]: 100 to 500 pM; for `Cc1nc2c(Nc3ccccc3S(C)(=O)=O)cc(Nc3ccc4c(n3)C(F)(F)CC4)nc2[nH]1` [I-618, N5-(7,7-difluoro-6,7-dihydro-5H-cyclopenta[b]pyridin-2-yl)-2-methyl-N7-(2-(methylsulfonyl)phenyl)-3H-imidazo[4,5-b]pyridine-5,7-diamine]: under 100 pM; for `COCCOc1ccc(Nc2cc(Nc3ccccc3S(C)(=O)=O)c3nc(C(F)F)[nH]c3n2)nc1C#N` [I-619, 6-((2-(difluoromethyl)-7-((2-(methylsulfonyl)phenyl)amino)-3H-imidazo[4,5-b]pyridin-5-yl)amino)-3-(2-methoxyethoxy)picolinonitrile]: under 100 pM. The same measure for `COCCOc1ccc(Nc2cc(Nc3ccccc3S(C)(=O)=O)c3nc(C)[nH]c3n2)nc1C#N` [I-620, 3-(2-methoxyethoxy)-6-((2-methyl-7-((2-(methylsulfonyl)phenyl)amino)-3H-imidazo[4,5-b]pyridin-5-yl)amino)picolinonitrile]: under 100 pM; for `COCCOc1ccc(Nc2cc(Nc3ccc(F)cc3S(C)(=O)=O)c3nc(C(F)F)[nH]c3n2)nc1C#N` [I-621, 6-((2-(difluoromethyl)-7-((4-fluoro-2-(methylsulfonyl)phenyl)amino)-3H-imidazo[4,5-b]pyridin-5-yl)amino)-3-(2-methoxyethoxy)picolinonitrile]: 100 to 500 pM; for `COCCOc1ccc(Nc2cc(Nc3ccc(F)cc3S(C)(=O)=O)c3nc(C)[nH]c3n2)nc1C#N` [I-622, 6-((7-((4-fluoro-2-(methylsulfonyl)phenyl)amino)-2-methyl-3H-imidazo[4,5-b]pyridin-5-yl)amino)-3-(2-methoxyethoxy)picolinonitrile]: under 100 pM.

For the compound `CS(=O)(=O)c1ccccc1Nc1cc(Nc2ccc(OC3CCOCC3)c(C#N)n2)nc2[nH]c(C(F)F)nc12` [I-623, 6-((2-(difluoromethyl)-7-((2-(methylsulfonyl)phenyl)amino)-3H-imidazo[4,5-b]pyridin-5-yl)amino)-3-((tetrahydro-2H-pyran-4-yl)oxy)picolinonitrile], the Kd is under 100 pM. For `Cc1nc2c(Nc3ccccc3S(C)(=O)=O)cc(Nc3ccc(OC4CCOCC4)c(C#N)n3)nc2[nH]1` [I-624, 6-((2-methyl-7-((2-(methylsulfonyl)phenyl)amino)-3H-imidazo[4,5-b]pyridin-5-yl)amino)-3-((tetrahydro-2H-pyran-4-yl)oxy)picolinonitrile], the Kd is under 100 pM.
